In PubChem BioAssay (NCI):
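The compound was tested at five concentrations on cells cultured in 96-well plates, with a 48-hour exposure period. Definition used: TGI = concentration required for complete inhibition of growth.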

Legend:
Assay in all cases: DTP human tumour cell line panel, 48 h
SNB-75 CNS = test system: SNB-75 CNS
TK-10 renal = test system: TK-10 renal
A549 NSCLC = test system: A549 NSCLC
SK-MEL-28 melanoma = test system: SK-MEL-28 melanoma
K-562 leukemia = test system: K-562 leukemia
NCI-H522 lung = test system: NCI-H522 lung
KM12 colon = test system: KM12 colon
HCC-2998 colon = test system: HCC-2998 colon
SK-MEL-5 melanoma = test system: SK-MEL-5 melanoma
M14 melanoma = test system: M14 melanoma
OVCAR-8 ovarian = test system: OVCAR-8 ovarian
SK-OV-3 ovarian = test system: SK-OV-3 ovarian
NCI-H460 lung = test system: NCI-H460 lung
SNB-19 CNS = test system: SNB-19 CNS
HCT-116 colon = test system: HCT-116 colon
MALME-3M melanoma = test system: MALME-3M melanoma
NCI/ADR-RES ovarian = test system: NCI/ADR-RES ovarian
BT-549 breast = test system: BT-549 breast
PC-3 prostate = test system: PC-3 prostate

| SMILES | TGI (SNB-75 CNS) | TGI (TK-10 renal) | TGI (A549 NSCLC) | TGI (SK-MEL-28 melanoma) | TGI (K-562 leukemia) | TGI (NCI-H522 lung) | TGI (KM12 colon) | TGI (HCC-2998 colon) | TGI (SK-MEL-5 melanoma) | TGI (M14 melanoma) | TGI (OVCAR-8 ovarian) | TGI (SK-OV-3 ovarian) | TGI (NCI-H460 lung) | TGI (SNB-19 CNS) | TGI (HCT-116 colon) | TGI (MALME-3M melanoma) | TGI (NCI/ADR-RES ovarian) | TGI (BT-549 breast) | TGI (PC-3 prostate) |
| --- | --- | --- | --- | --- | --- | --- | --- | --- | --- | --- | --- | --- | --- | --- | --- | --- | --- | --- | --- |
| Oc1cc(CN2CCOCCOCCOCCOCC2)c(O)cc1CN1CCOCCOCCOCCOCC1 | > 100 µM | > 96.2 µM | > 100 µM | 54.7 µM | > 75.2 µM | 31.6 µM | > 100 µM | > 100 µM | > 100 µM | 38.9 µM | > 100 µM | > 100 µM | > 100 µM | > 100 µM | 43.4 µM |  |  |  |  |
| CC/C(=N/O)c1ccc2[nH]c3c(C)cc([N+](=O)[O-])c(C)c3c2c1 | > 100 µM | > 100 µM | > 100 µM | > 100 µM | > 100 µM | > 100 µM | > 100 µM | > 100 µM | > 100 µM | > 100 µM | > 100 µM |  | > 100 µM | > 100 µM | > 100 µM | > 100 µM |  |  |  |
| Cc1cc(S(=O)(=O)NC2=NCCN2Cc2ccccc2)c(S)cc1Cl | > 100 µM | > 100 µM | > 100 µM | > 100 µM | > 100 µM | > 100 µM | > 100 µM | > 100 µM | > 100 µM | > 100 µM | > 100 µM | > 100 µM | > 100 µM | > 100 µM | > 100 µM | > 100 µM | > 100 µM | > 100 µM | > 100 µM |
| COc1ccccc1-n1c(NN)nc2ccc(Br)cc2c1=O | > 100 µM | 79.5 µM | > 100 µM | > 100 µM | > 100 µM | 63.2 µM | > 100 µM | > 100 µM | 43 µM | > 100 µM | > 100 µM | 99.3 µM | > 100 µM | > 100 µM |  | > 100 µM |  |  |  |
| Cc1ccc(NC(=O)CSc2nnc(Cc3ccccc3)o2)cc1 | > 100 µM | > 100 µM | > 100 µM | > 100 µM | > 100 µM | > 100 µM | > 100 µM | > 100 µM | > 100 µM | > 100 µM | > 100 µM | > 100 µM | > 100 µM | > 100 µM | > 100 µM | > 100 µM |  |  |  |
| COc1ccc(-n2c3c(c4cc(O)ccc42)Cc2ccccc2C3=O)cc1 | 31.9 µM | > 100 µM | > 100 µM | > 100 µM | > 100 µM |  | > 100 µM |  | > 100 µM | > 100 µM | > 100 µM | 57 µM | > 100 µM | > 100 µM | > 100 µM | > 100 µM | > 100 µM | > 100 µM | 15.3 µM |
| C[C@@H]1O[C@]2(O)[C@@H]3CCCN3S(=O)(=O)CCN2C1=O | > 100 µM | > 100 µM | > 100 µM | > 100 µM | > 100 µM | > 100 µM | > 100 µM | > 100 µM | > 100 µM | > 100 µM | > 100 µM | > 100 µM | > 100 µM | > 100 µM | > 100 µM | > 100 µM |  |  |  |
